Source: patent publication US20250154142A1, “THIADIAZOLE-SUBSTITUTED COMPOUND, PHARMACEUTICAL COMPOSITIONS THEREOF, AND APPLICATIONS THEREOF” (Shanghai Yingli Pharmaceutical Co., Ltd., priority 2023, published 2025)

Experiments:
[1] = molecular target: T1, PARG (389-976) (Homo sapiens, UniProt Q86W56); assay: PARG enzyme inhibition assay (TR-FRET); type: biochemical; details: Bio PARylated His-TEV-PARP1 substrate
T1 construct: 5 μL of PARG (389-976) (manufactured by Chempartner Chemical Co., Ltd.); purchased Chempartner Chemical Co., Ltd
Protocol: PARG in vitro assays were conducted in standard 384-well plates in a total volume of 15 μL. 5 μL of PARG (389-976) (manufactured by Chempartner Chemical Co., Ltd.) in buffer (50 mM Tris-HCL 7.5, 30 mM KCl, 1 mM EDTA, 3 mM DTT, tween-20 0.01%, BSA 0.025%) was added at a final concentration of 1.5 pM to the 384-well plates containing the compounds to be tested, which was incubated for 30 min at room temperature. To the above mixture was added 5 μL Bio PARylated His-TEV-PARP1 (2-1014) substrate (manufactured by Chempartner Chemical Co., Ltd.) at a final concentration of 12 nM, after addition, the resulting mixture was incubated for 30 minutes at room temperature. Then to the mixture was added detection reagent (5 μL) which was buffered with 50 mM Tris-HCL 7.5, 30 mM KCl, 1 mM EDTA, 3 mM DTT, tween-20 0.01%, BSA 0.025%, and consisted of 3 μM of compound PDD00017273 and 9 nM Mab anti-6HIS XL665 (Cisbio: 61HISXLA) and 0.9 nM streptavidin affinity terbium cryptate (Cisbio: 610SATLA), all at 3× working concentrations (final concentrations of […], 3 nM and 0.3 nM, respectively). After 120 min incubation in the dark at room temperature, TR-FRET signals were measured at Ex 340 and Em 665 and Em 615. The ratio for each well was calculated as Em 665/Em 615 and the compound inhibition rate was calculated based on the obtained data.

[2] = Pharmacokinetic studies in mice after intravenous and oral administration; type: in vivo; details: mouse, male CD-1 mice, plasma
Protocol: After intravenous and oral administration to male C57BL/6J mice or male CD-1 mice, plasma samples were collected through the orbital venous plexus at 8-9 time points (e.g., 5 min, 15 min, 30 min, 1 h, 2 h, 4 h, 7 h, 24 h or 5 min, 15 min, 30 min, 1 h, 2 h, 4 h, 6 h, 8 h, 24 h). The collected blood samples were transferred to microcentrifuge tubes containing EDTA-K2 anticoagulant, and the […] were centrifuged for 5 min at 4° C. and 4000 g. The supernatants were stored in a refrigerator at −75° C.±15° C. The concentrations of the compounds in the plasma at the different time points were detected by LC-MS/MS and the relevant pharmacokinetic parameters were calculated using the WinNonlin software

T1 sequence (Q86W56 389-976): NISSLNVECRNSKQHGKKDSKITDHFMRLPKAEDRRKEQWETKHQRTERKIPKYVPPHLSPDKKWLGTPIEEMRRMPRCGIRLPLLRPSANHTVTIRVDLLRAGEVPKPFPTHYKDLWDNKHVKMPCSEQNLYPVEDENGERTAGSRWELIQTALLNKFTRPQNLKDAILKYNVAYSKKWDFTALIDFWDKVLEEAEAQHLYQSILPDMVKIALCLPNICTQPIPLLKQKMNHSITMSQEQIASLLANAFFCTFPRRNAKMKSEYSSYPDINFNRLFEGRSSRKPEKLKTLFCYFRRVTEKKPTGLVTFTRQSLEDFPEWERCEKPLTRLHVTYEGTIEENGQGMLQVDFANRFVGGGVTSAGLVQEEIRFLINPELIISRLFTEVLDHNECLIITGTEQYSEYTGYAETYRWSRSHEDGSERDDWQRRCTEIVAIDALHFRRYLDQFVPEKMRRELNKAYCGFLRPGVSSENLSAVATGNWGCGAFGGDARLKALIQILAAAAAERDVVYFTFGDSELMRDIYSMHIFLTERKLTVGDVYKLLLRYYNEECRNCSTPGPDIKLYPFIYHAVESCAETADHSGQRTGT

Compound	IC50 ([1]; class symbol) [nM]	IC50 ([1]; numeric value) [nM]	AUC(0-inf) ([2]; intravenous 5 mg/kg) [ng·h/mL]	AUC(0-t) ([2]; intravenous 5 mg/kg) [ng·h/mL]	clearance ([2]; intravenous 5 mg/kg) [mL/min/kg]	AUC(0-inf) ([2]; oral administration 10 mg/kg) [ng·h/mL]	AUC(0-t) ([2]; oral administration 10 mg/kg) [ng·h/mL]	Cmax ([2]; oral administration 10 mg/kg) [ng/mL]
C[C@H]1CN(c2cc(S(=O)(=O)NC3(C)CC3)cc3c2cnn3-c2nnc(C(F)(F)F)s2)C[C@H](C)N1 [Compound 1]	< 2	0.2	3700	2540	22.5	2980	2610	175
C[C@H]1CN(c2cc(S(=O)(=O)NC3(C)CC3)cc3c2cnn3-c2nnc(C(F)F)s2)C[C@H](C)N1 [Compound 1′, reference compound]	< 2	0.21	939	905	89.5	929	725	98.8
C[C@H]1CN(c2cc(S(=O)(=O)NC3(C#N)CC3)cc3c2cnn3-c2nnc(C(F)(F)F)s2)C[C@H](C)N1 [Compound 2]	< 2	0.62	–	–	–	–	–	–
C[C@H]1CN(c2c(F)c(S(=O)(=O)NC3(C#N)CC3)cc3c2cnn3-c2nnc(C(F)(F)F)s2)C[C@H](C)N1 [Compound 3]	–	–	2420	2410	34.8	4080	4070	513

Now from value to compound:

IC50 ([1]; class symbol) [nM]	IC50 ([1]; numeric value) [nM]	AUC(0-inf) ([2]; intravenous 5 mg/kg) [ng·h/mL]	AUC(0-t) ([2]; intravenous 5 mg/kg) [ng·h/mL]	clearance ([2]; intravenous 5 mg/kg) [mL/min/kg]	AUC(0-inf) ([2]; oral administration 10 mg/kg) [ng·h/mL]	AUC(0-t) ([2]; oral administration 10 mg/kg) [ng·h/mL]	Cmax ([2]; oral administration 10 mg/kg) [ng/mL]	Compound
< 2	–	2350	1990	35.6	3970	3260	198	C[C@H]1CN(c2c(F)c(S(=O)(=O)NC3(C)CC3)cc3c2cnn3-c2nnc(C(F)(F)F)s2)C[C@H](C)N1 [Compound 4]
< 2	–	1620	1600	51.6	2000	1970	172	C[C@H]1CN(c2c(F)c(S(=O)(=O)NC3(C)CC3)cc3c2cnn3-c2nnc(C(F)F)s2)C[C@H](C)N1 [Compound 5]
